ChEMBL document CHEMBL5096175, “An insight into the medicinal attributes of berberine derivatives: A review” (Bioorg Med Chem, 2021)
pIC50, pKi: −log10 of the molar value. Values after ≈ are worked out from the molar mass of the structure shown.

Key:
[1] = biological target: Chitinase B (Serratia marcescens, UniProt P11797); test: Inhibition of Serratia marcescens chitinase B expressed in Escherichia coli BL21(DE3) cells using MU-(GlcNAc)2 as a substrate assessed as inhibition constant incubated for 25 mins by dixon plot analysis
[2] = tested on: Candida parapsilosis; test: Antifungal activity against Candida parapsilosis ATCC 22019 assessed as inhibition of fungal growth incubated for 24 hrs; format: functional; details: Lodderomyces parapsilosis
[3] = tested on: Candida albicans; test: Antifungal activity against Candida albicans ATCC 90023 assessed as inhibition of fungal growth incubated for 24 hrs; format: functional
[4] = tested on: Pseudomonas aeruginosa; test: Antibacterial activity against Pseudomonas aeruginosa 27853 assessed as inhibition of bacterial growth incubated for 24 hrs by CLSI based broth microdilution method; format: functional
[5] = tested on: Staphylococcus aureus; test: Antibacterial activity against methicillin-resistant Staphylococcus aureus assessed as inhibition of bacterial growth incubated for 24 hrs by CLSI based broth microdilution method; format: functional
[6] = tested on: Escherichia coli; test: Antibacterial activity against Escherichia coli assessed as inhibition of bacterial growth incubated for 24 hrs by micro broth dilution method; format: functional
[7] = Antioxidant activity assessed as DPPH radical scavenging activity measured after 25 mins by UV visible spectrophotometeric analysis; format: functional
[8] = tested on: HeLa; test: Anticancer activity against human HeLa cells assessed as cell growth inhibition incubated for 48 hrs by SRB assay; format: functional, cell-based
[9] = tested on: Ca-Ski; test: Anticancer activity against human Ca-Ski cells assessed as cell growth inhibition incubated for 48 hrs by SRB assay; format: functional, cell-based
[10] = Antioxidant activity assessed as ABTS radical scavenging activity incubated for 10 mins by UV spectrophotometeric analysis; format: functional
[11] = tested on: Escherichia coli; test: Antibacterial activity against Escherichia coli CICC 10389 assessed as inhibition of bacterial growth incubated for 24 hrs by broth microdilution method; format: functional
[12] = tested on: Clostridium perfringens; test: Antibacterial activity against Clostridium perfringens CICC 22949 assessed as inhibition of bacterial growth incubated for 24 hrs by broth microdilution method; format: functional
[13] = tested on: Staphylococcus aureus; test: Antibacterial activity against Staphylococcus aureus CICC 23656 assessed as inhibition of bacterial growth incubated for 24 hrs by broth microdilution method; format: functional
[14] = tested on: Pseudomonas aeruginosa; test: Antibacterial activity against Pseudomonas aeruginosa CICC 10419 assessed as inhibition of bacterial growth incubated for 24 hrs by broth microdilution method; format: functional
[15] = tested on: Salmonella enteritidis; test: Antibacterial activity against Salmonella enteritidis CICC 24119 assessed as inhibition of bacterial growth incubated for 24 hrs by broth microdilution method; format: functional, Salmonella enterica subsp. enterica serovar Enteritidis; details: Salmonella enterica
[16] = tested on: Shigella dysenteriae; test: Antibacterial activity against Shigella dysenteriae CICC 23829 assessed as inhibition of bacterial growth incubated for 24 hrs by broth microdilution method; format: functional
[17] = tested on: Streptococcus pyogenes; test: Antibacterial activity against Streptococcus pyogenes CICC 10356 assessed as inhibition of bacterial growth incubated for 24 hrs by broth microdilution method; format: functional
[18] = tested on: Staphylococcus aureus; test: Antibacterial activity against methicillin-resistant Staphylococcus aureus ATCC 700699 assessed as inhibition of bacterial growth incubated for 24 hrs by broth microdilution method; format: functional
[19] = tested on: PC-12; test: Cytotoxicity against […] cells assessed as inhibition of cell proliferation incubated for 24 hrs by MTT assay; format: functional, cell-based; details: Rattus norvegicus, PC-12, 24 h
[20] = tested on: MCF7; test: Cytotoxicity against human MCF7 cells assessed as inhibition of cell proliferation incubated for 24 hrs by MTT assay; format: functional, cell-based; details: MCF7, 24 h
[21] = tested on: HeLa; test: Cytotoxicity against human HeLa cells assessed as inhibition of cell proliferation incubated for 24 hrs by MTT assay; format: functional, cell-based
[22] = tested on: HepG2; test: Cytotoxicity against human HepG2 cells assessed as inhibition of cell proliferation incubated for 24 hrs by MTT assay; format: functional, cell-based; details: HepG2, 24 h
[23] = tested on: A549; test: Cytotoxicity against human A549 cells assessed as inhibition of cell proliferation incubated for 24 hrs by MTT assay; format: functional, cell-based; details: A549, 24 h
[24] = biological target: Histone acetyltransferase p300 (Homo sapiens, UniProt Q09472); test: Inhibition of N-terminal His/GST-tagged recombinant human p300 HAT domain (965 to 1810 residues) expressed in Sf9 insect cells using isotope labelled 3H-Ac-CoA as substrate incubated for 60 mins by microbeta counter based analysis
[25] = tested on: Brucella abortus; test: Antibacterial activity against Brucella abortus by serial dilution method; format: functional
[26] = tested on: Vibrio cholerae; test: Antibacterial activity against Vibrio cholerae by serial dilution method; format: functional
[27] = tested on: Influenza A virus; test: Antiviral activity against influenza virus A A/PR/8/34 infected in MDCK cells assessed as inhibition of virus-induced cytopathic effect measured after 48 hrs by SRB bioassay; format: functional, organism-based; details: A/PR/8/34, MDCK
[28] = Therapeutic index, ratio of CC50 for cytotoxicity against MDCK cells to IC50 for antiviral activity against influenza virus A A/PR/8/34; format: toxicity, cell-based; details: dog, read-out: TI
[29] = Cytotoxicity against MDCK cells incubated for 48 hrs by SRB bioassay; format: toxicity, cell-based, Canis lupus familiaris; details: dog
[30] = tested on: HEK-293T; test: Antiinflammatory activity against HEK-293T cells assessed as inhibition of TNF-alpha induced NF-kappaB activation at 5 uM preincubated for 2 hrs followed by TNFalpha stimulation for 6 hrs by dual-luciferase reporter assay relative to control; format: functional; details: Homo sapiens, time 8 hrs
[31] = tested on: HeLa; test: Antiproliferative activity against human HeLa cells assessed as inhibition of cell growth incubated for 72 hrs by MTT assay; format: functional, cell-based
[32] = tested on: Bel-7402; test: Antiproliferative activity against human Bel-7402 cells assessed as inhibition of cell growth incubated for 72 hrs by MTT assay; format: functional, cell-based; details: Bel-7402, 72 h
[33] = tested on: HCT-8; test: Antiproliferative activity against human HCT-8 cells assessed as inhibition of cell growth incubated for 72 hrs by MTT assay; format: functional, cell-based; details: HCT-8, 72 h
[34] = tested on: A549; test: Antiproliferative activity against human A549 cells assessed as inhibition of cell growth incubated for 72 hrs by MTT assay; format: functional, cell-based; details: A549, 72 h
[35] = biological target: Acetylcholinesterase (Homo sapiens, UniProt P22303); test: Inhibition of acetylcholinesterase (unknown origin) using acetylthiocholine iodide as substrate incubated for 10 mins by Ellman's colorimetric method
[36] = tested on: MCF7; test: Antiproliferative activity against human MCF7 cells incubated for 24 hrs by MTT assay; format: functional, cell-based; details: MCF7, 24 h

Chain of Chitinase B (P11797 whole entry): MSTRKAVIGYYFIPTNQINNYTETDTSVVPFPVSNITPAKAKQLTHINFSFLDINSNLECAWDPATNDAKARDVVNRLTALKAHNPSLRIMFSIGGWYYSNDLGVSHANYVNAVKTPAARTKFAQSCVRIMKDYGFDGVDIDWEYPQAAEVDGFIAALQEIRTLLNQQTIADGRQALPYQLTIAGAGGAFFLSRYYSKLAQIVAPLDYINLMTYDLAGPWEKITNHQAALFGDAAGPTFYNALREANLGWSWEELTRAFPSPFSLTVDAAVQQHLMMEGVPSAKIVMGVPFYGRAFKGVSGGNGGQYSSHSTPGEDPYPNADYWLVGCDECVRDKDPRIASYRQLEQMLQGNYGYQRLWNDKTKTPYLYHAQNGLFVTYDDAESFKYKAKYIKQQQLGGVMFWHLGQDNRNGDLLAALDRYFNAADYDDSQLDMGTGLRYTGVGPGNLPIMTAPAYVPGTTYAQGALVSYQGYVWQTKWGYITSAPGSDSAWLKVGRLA
Chain of Acetylcholinesterase (P22303 whole entry): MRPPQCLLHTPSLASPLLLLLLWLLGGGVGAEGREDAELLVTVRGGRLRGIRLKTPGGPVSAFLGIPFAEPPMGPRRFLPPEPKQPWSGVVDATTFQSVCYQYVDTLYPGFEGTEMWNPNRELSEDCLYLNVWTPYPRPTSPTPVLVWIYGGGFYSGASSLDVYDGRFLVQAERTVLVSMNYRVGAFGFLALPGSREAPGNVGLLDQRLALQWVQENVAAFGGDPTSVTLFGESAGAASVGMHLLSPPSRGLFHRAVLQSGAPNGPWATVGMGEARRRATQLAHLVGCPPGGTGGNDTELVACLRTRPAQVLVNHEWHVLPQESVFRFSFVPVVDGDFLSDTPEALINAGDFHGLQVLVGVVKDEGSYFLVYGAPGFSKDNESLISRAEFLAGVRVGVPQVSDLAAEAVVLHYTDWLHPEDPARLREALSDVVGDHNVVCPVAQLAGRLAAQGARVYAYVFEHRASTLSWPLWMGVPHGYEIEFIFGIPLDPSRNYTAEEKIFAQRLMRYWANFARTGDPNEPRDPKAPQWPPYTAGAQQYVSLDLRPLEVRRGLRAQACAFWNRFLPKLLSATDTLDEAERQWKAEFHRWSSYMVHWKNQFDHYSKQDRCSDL
Chain of Histone acetyltransferase p300 (Q09472 whole entry, the tested form may be a part): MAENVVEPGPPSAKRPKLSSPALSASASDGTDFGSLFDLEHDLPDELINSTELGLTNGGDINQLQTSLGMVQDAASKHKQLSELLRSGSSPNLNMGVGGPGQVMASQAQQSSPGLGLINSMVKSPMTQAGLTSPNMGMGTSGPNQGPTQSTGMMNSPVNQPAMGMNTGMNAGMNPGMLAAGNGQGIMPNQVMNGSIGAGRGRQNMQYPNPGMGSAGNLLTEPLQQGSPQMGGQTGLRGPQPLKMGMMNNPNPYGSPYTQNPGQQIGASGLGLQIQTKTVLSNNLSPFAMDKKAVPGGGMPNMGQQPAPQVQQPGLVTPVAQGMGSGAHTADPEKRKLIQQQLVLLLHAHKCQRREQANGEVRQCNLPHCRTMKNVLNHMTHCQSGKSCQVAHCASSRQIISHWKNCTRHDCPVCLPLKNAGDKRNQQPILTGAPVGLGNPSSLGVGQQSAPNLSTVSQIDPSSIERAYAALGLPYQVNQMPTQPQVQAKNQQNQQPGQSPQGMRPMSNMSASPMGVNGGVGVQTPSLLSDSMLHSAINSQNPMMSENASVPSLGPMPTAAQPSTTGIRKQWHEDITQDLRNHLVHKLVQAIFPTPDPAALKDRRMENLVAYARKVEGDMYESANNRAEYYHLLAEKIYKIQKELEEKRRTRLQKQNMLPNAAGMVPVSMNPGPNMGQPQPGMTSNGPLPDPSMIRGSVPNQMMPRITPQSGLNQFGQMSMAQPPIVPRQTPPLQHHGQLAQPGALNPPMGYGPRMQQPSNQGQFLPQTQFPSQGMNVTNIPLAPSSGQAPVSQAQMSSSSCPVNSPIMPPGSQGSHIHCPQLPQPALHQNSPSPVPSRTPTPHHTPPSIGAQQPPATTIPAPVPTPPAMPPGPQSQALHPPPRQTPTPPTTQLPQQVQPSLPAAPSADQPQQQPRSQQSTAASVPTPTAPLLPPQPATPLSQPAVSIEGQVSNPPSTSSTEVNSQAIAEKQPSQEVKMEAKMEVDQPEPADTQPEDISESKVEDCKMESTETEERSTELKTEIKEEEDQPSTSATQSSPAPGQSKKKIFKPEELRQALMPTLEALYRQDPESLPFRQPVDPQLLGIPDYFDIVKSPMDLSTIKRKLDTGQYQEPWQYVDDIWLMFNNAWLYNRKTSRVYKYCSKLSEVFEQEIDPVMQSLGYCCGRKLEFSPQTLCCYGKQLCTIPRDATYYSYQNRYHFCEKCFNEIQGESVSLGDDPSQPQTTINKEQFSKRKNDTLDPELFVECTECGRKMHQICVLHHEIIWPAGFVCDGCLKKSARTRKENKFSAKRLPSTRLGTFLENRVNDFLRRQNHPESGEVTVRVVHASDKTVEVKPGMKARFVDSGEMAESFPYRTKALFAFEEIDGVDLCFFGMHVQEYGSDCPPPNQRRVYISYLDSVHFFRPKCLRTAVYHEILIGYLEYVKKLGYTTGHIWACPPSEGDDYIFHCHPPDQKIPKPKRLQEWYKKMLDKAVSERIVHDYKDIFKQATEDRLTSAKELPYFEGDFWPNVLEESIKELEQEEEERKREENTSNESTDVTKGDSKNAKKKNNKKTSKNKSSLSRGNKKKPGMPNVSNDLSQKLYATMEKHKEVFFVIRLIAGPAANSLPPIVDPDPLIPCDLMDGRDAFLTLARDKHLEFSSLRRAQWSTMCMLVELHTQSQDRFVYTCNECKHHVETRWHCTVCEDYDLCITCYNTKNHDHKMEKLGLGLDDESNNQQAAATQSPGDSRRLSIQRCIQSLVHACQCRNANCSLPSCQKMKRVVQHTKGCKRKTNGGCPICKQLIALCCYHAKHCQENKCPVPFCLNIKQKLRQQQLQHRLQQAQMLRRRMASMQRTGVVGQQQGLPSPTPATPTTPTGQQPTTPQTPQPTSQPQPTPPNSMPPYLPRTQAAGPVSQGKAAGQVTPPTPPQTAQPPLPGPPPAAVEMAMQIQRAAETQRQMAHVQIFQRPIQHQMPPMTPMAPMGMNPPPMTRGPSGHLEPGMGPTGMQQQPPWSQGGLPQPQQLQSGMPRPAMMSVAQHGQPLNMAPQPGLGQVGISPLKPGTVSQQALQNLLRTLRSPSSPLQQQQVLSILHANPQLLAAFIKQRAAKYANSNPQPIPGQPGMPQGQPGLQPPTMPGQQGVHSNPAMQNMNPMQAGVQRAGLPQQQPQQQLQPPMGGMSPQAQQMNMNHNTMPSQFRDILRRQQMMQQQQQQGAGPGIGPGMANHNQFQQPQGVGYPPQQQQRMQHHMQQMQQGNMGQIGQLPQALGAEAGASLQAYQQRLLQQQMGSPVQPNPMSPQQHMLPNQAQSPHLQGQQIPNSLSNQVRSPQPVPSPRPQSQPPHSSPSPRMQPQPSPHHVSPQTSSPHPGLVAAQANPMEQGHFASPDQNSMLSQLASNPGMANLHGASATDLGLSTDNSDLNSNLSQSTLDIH

Structure (SMILES): COc1ccc2cc3[n+](cc2c1OC(=O)c1ccccc1)CCc1cc2c(cc1-3)OCO2
- pKi [1]: 6.82

Structure (SMILES): CCCCOc1c(OC)cc(/C=C2\SC(=O)NC2=O)c2c1CN1CCc3cc4c(cc3C1C2)OCO4 (stereo not given)
- MIC [2]: 8 µM (≈ 4.07 µg/mL)
- MIC [3]: 16 µM (≈ 8.14 µg/mL)
- MIC [4]: 8 µM (≈ 4.07 µg/mL)
- MIC [5]: 8 µM (≈ 4.07 µg/mL)

Structure (SMILES): COc1cc(/C=C(\C#N)n2cc([N+](=O)[O-])nc2C)c2c(c1OCc1ccccc1F)CN1CCc3cc4c(cc3C1C2)OCO4 (stereo not given)
- MIC [6]: 3 µM (≈ 1.83 µg/mL)

Structure (SMILES): COc1ccc2cc3[n+](cc2c1OCCCCCn1c(C)cc2ccccc21)CCc1cc2c(cc1-3)OCO2.[Cl-]
- pIC50 [7]: 4.70
- IC50 [8]: 7.21 µg/mL
- IC50 [9]: 6.32 µg/mL
- pIC50 [10]: 5.04

Structure (SMILES): COc1ccc2cc3[n+](cc2c1OCc1ccc(C(F)(F)F)cc1)CCc1cc2c(cc1-3)OCO2
- MIC [11]: 0.82 µM
- MIC [12]: 0.82 µM
- MIC [13]: 0.82 µM
- MIC [14]: 0.82 µM
- MIC [15]: 0.82 µM
- MIC [16]: 0.82 µM
- MIC [17]: 0.82 µM
- MIC [18]: 0.82 µM

Structure (SMILES): CCCCCC/C=C\C/C=C/C(=O)NCCCCCCOc1c(OC)ccc2cc3[n+](cc12)CCc1cc2c(cc1-3)OCO2
- pIC50 [19]: 5.42
- pIC50 [20]: 5.41
- pIC50 [21]: 5.42
- pIC50 [22]: 5.35
- pIC50 [23]: 5.49

Structure (SMILES): COc1cc2cc3[n+](cc2cc1OC)CCCc1cc2c(cc1-3)OCO2
- pIC50 [24]: 5.74

Structure (SMILES): COc1cc(C=C(C#N)C#N)c2cc3[n+](cc2c1O)CCc1cc2c(cc1-3)OCO2.[Cl-]
- MIC [25]: 64 µg/mL
- MIC [26]: 64 µg/mL

Structure (SMILES): COc1ccc(N2CCN(CCCCCOc3c(OC)ccc4cc5[n+](cc34)CCc3cc4c(cc3-5)OCO4)CC2)c(OC)c1.[Cl-]
- IC50 [27]: 35.2 µg/mL
- selectivity ratio [28]: 111
- CC50 at 48 h [29]: 3890 µg/mL

Structure (SMILES): COc1ccc2cc3[n+](cc2c1OS(=O)(=O)c1ccc(C(F)(F)F)cc1)CCc1cc2c(cc1-3)OCO2
- inhibition at 5 µM [30]: > 90%

Structure (SMILES): COCCCCC(=O)Oc1c(OC)ccc2cc3[n+](cc12)CCc1cc2c(cc1-3)OCO2
- pKi [1]: 6.82

Structure (SMILES): CCCCCN(CCCCC)c1cc(OC)c(OC)c2c1CC1c3cc4c(cc3CCN1C2)OCO4 (stereo not given)
- pIC50 [31]: 5.01
- pIC50 [32]: 5.01
- pIC50 [33]: 5.01
- pIC50 [34]: 5.01

Structure (SMILES): COc1ccc2cc3[n+](cc2c1OC(=O)C1(C)CCCCC1)CCc1cc2c(cc1-3)OCO2
- inhibition at 5 µM [30]: > 90%

Structure (SMILES): Oc1cc2c(cc1O)-c1cc3ccc(O)c(O)c3c[n+]1CC2
- pIC50 [35]: 5.64

Structure (SMILES): COc1cc(CC2C(=O)C(C)C(=O)C(C)C2=O)c2cc3[n+](cc2c1O)CCc1cc2c(cc1-3)OCO2.[Cl-] (stereo not given)
- MIC [25]: 64 µg/mL
- MIC [26]: 64 µg/mL

Structure (SMILES): CCCCCCCCCOc1c(OC)ccc2cc3[n+](cc12)CCc1cc2c(cc1-3)OCO2
- pIC50 [36]: 5.31
